What was measured:
[1] = tested on: cancer cells within HNSCC patient tumour slices; test: Cancer cell kill: pan-cytokeratin+ / cleaved caspase-3+ cells by dual IHC or IF in drug-treated tumour slices; assay type: cell-based, human
Protocol: H&E staining and dual IHC were performed on drug-treated and untreated HNSCC slices. Briefly, slices were fixed, processed using the automatic tissue processor, and embedded in paraffin. Paraffin blocks were sectioned and H&E staining was performed. Dual IHC was performed using ChromoPlex 1 Dual Detection (Leica DS9665) with a high pH EDTA-based buffer (ER2, Leica AR9640) for 20 min. A specific cocktail of antibodies was used to identify cancer cell apoptosis, including pan-cytokeratin and cleaved caspase-3 antibody. Standard immunofluorescence were performed with active YAP1. Image acquisition was done using the slide scanning system. The images were processed with a customized analysis profile using the nuclear segmentation method to quantify the percentage of apoptotic cancer cells.

[2] = tested on: CD8+ cells in HNSCC tumour slices; test: Flow cytometry of granzyme B expression in CD8+ cells of drug-treated HNSCC patient tumour slices; assay type: cell-based, human
Protocol: Tumour slices were first manually removed from the hydrogel and digested. Dissociated cells were spun down, washed, and resuspended, and counted using a cell counter. Prior to fixing, cells were stained for surface proteins with fluorophore-conjugated antibodies and fixable dye. The cell suspension were then […]. Compensation was performed using single stains; live cells and singlets were gated by gating on a dye differentiating live and dead cells or on scatter characteristics or both.

Row | Compound | apoptotic cancer cells ([1]; Patient 6 (HN358), controls ~5%) | cleaved caspase-3 positivity (apoptotic) in cancer cells ([1]; Patient 6 (HN358), Day 2, controls ~11%) | tumour kill in drug-treated slices ([1]; Patient 7 (HN359)) | granzyme B expression in CD8+ cells ([2]; Patient 6 (HN358), control 8.9%) | granzyme B expression in CD8+ cells ([2]; Patient 7 (HN359), compared to control)
1 | N.N.[Cl][Pt][Cl] [cisplatin] | ~12% |  |  |  | 
2 | pembrolizumab |  | ~25% | no enhanced tumour kill | 5.2% | slight increase
